{
  "source": "BindingDB's records for PubMed 34043359",
  "about": "(China Pharmaceutical University, 2021)",
  "biological_target": "Signal transducer and activator of transcription 3 (Homo sapiens, UniProt P40763)",
  "sequence (P40763 whole entry)": "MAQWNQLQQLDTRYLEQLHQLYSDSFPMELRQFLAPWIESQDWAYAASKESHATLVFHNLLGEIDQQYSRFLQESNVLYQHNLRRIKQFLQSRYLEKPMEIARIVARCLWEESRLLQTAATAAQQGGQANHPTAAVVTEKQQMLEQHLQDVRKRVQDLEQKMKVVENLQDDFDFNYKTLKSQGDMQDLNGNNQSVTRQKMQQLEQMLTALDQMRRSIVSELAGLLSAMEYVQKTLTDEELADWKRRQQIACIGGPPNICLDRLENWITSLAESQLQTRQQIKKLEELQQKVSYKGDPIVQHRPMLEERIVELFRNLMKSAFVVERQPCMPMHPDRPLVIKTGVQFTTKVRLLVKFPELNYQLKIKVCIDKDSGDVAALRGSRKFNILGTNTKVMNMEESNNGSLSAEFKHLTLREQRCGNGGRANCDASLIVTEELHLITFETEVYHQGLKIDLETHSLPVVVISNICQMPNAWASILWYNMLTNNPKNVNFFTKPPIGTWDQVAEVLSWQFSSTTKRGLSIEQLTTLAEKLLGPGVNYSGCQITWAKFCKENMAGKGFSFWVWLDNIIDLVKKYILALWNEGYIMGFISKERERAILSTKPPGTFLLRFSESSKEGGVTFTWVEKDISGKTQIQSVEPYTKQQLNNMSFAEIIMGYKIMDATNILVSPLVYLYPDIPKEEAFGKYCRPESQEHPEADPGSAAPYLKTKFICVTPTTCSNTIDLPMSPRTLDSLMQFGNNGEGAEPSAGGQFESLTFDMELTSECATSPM",
  "test": "Binding affinity to recombinant GST tagged STAT3 (unknown origin) assessed as dissociation constant",
  "data": [
    {"smiles": "COc1cc(/C=C/c2ccc(OCCCCCCC(=O)NO)cc2)cc(OC)c1", "values": [
      {"measurement": "koff", "value": 0.0152, "unit": "s⁻¹"}
    ]}
  ]
}
